Laboratory results from patent US6733985B1, “Preparation of stable liquid and dried synthetic prothrombin time reagents” (International Technidyne Corporation, priority 1999, dated 2004).
Where a SMILES comes first, the peptide text is derived from it.

B1: recombinant tissue factor: recombinant tissue factor based PT reagent, named in b17 as comparison for sensitivity (protein, UniProt P13726 33-295, looked up)
Tissue factor: SGTTNTVAAYNLTWKSTNFKTILEWEPKPVNQVYTVQISTKSGDWKSKCFYTTDTECDLTDEIVKDVKQTYLARVFSYPAGNVESTGSAGEPLYENSPEFTPYLETNLGQPTIQSFEQVGTKVNVTVEDERTLVRRNNTFLSLRDVFGKDLIYTLYYWKSSSSGKKTAKTNTNEFLIDVDKGENYCFSVQAVIPSRTVNRKSTDSPVECMGQEKGEFREIFYIIGAVVFVVIILVIILAISLHKCRKAGVGQSWKENSPLNVS
modifications: PT reagent
notes: recombinant tissue factor based PT reagent, named in b17 as comparison for sensitivity

What was measured:
[1] = tested on: Level I (normal control) and Level III (abnormal control) control plasma; assay: traditional prothrombin time test method using a Fibrometer; details: amino acid stabilizer compound formulated into PT reagent (summary of Examples 1 to 13)
Description: The concentration of the dissolved phospholipids was 12.76 mM. […] Additional bovine serum albumin was added to a concentration of 4.8 mg/ml. […] The dialyzed lipidated tissue factor, was then drained from the dialysis bag. […] The formulated material was frozen at −70° C., and then thawed. The thawed formulated material was incubated at 25 and 37° C. for 4 weeks, The reagent was taken out from the incubation at weekly intervals and subjected to coagulation assay by traditional prothrombin time test method using a Fibrometer. The control plasma samples used for the assay were Level I (normal control) and Level III (abnormal control) of Ortho Diagnostics Corporation. […] The Level III abnormal control plasma contains a reduced amount of coagulation factors representing the plasma of patients.

[2] = tested on: Control Level I or Level III plasma samples; assay: clotting assay of air-dried reagent in cuvets for Protime instrument; type: biochemical; details: Example 11 lipidated tissue factor in 14 mM Hepes, 4% sorbitol, 1% β-alanine, with 1% polymeric carbohydrate or none
Description: The formulated material was air-dried at 20° C. and 5% relative humidity in cuvets for Protime instrument (a product of International Technidyne Corporation, Edison, N.J.). The produced cuvets with reagent were incubated at 25, 37 and 45° C. for stability studies. At given time intervals, the cuvets were taken out of the incubators and assayed for their clotting activities. Freshly withdrawn blood, Control Level I or Level III plasma samples were added to the cuvets with the dried reagent for assay. Calcium chloride, 8.3 mM, was added to the control plasmas and loaded on the cuvet immediately for assay. In this assay system, reconstitution of the dried reagent is done with plasma or blood, without using water, which is different from Fibrometer assay system. Thence, the kinetics involved in these two systems are different, as well as the clotting times. Whole blood contains a considerable amount of red blood cells and other blood components and its clotting activity is different from that of plasma. For comparison, the clotting time with freshly withdrawn whole blood at day zero was 22.8 seconds.
As shown in the results, γ-Cyclodextrin is a useful homogeneous polymeric carbohydrate to adjust the sensitivity of the synthetic PT reagent.

[3] = tested on: Level III and Level I plasma; details: prior art comparison; cited from earlier work

Molecule | Level III/I ratio test results [1] | also measured
N=C(N)NCCC[C@H](N)C(=O)O [Arginine] | Unsatis- | 
N[C@@H](CC(=O)O)C(=O)O [Aspartic acid] | Unsatis- | 
NCCC(=O)O [Beta alanine] | Satisfac- | 
NCCCCC(=O)O [Delta aminovaleric acid] | Satisfac- | 
NCCCC(=O)O [Gamma aminobutyric acid] | Satisfac- | 
NCC(=O)NCC(=O)O [Glycylglycine] (H-Gly-Gly-OH) | Unsatis- | 
OC[C@H]1O[C@@H]2O[C@H]3[C@H](O)[C@@H](O)[C@@H](O[C@H]4[C@H](O)[C@@H](O)[C@@H](O[C@H]5[C@H](O)[C@@H](O)[C@@H](O[C@H]6[C@H](O)[C@@H](O)[C@@H](O[C@H]7[C@H](O)[C@@H](O)[C@@H](O[C@H]8[C@H](O)[C@@H](O)[C@@H](O[C@H]9[C@H](O)[C@@H](O)[C@@H](O[C@H]1[C@H](O)[C@H]2O)O[C@@H]9CO)O[C@@H]8CO)O[C@@H]7CO)O[C@@H]6CO)O[C@@H]5CO)O[C@@H]4CO)O[C@@H]3CO [γ-Cyclodextrin] |  | Clotting Times, Level I [2]: 17.6 s; Clotting Times, Level III [2]: 81.8 s; III/I Ratio [2]: 4.7
NCCCCCC(=O)O [ε-aminocaproic acid] | Unsatis- | 
B1 |  | Level III/I sensitivity [3]: 4.0
